Experiments:
Assay in all cases: KINOMEscan competition binding
Details in all cases: compound 10.0 µM
PRKCQ (human) = PRKCQ (human) (UniProt Q04759)
CLK3 (human) = CLK3 (human) (UniProt P49761)
YES1 (human) = YES1 (human) (UniProt P07947)
AAK1 (human) = AAK1 (human) (UniProt Q2M2I8)
PIM1 (human) = PIM1 (human) (UniProt P11309)
AKT1 (human) = AKT1 (human) (UniProt P31749)
CDK2 (human) = CDK2 (human) (UniProt P24941)
NEK7 (human) = NEK7 (human) (UniProt Q8TDX7)
TLK2 (human) = TLK2 (human) (UniProt Q86UE8)
MYLK2 (human) = MYLK2 (human) (UniProt Q9H1R3)
MAPK9 (human) = MAPK9 (human) (UniProt P45984)
MAPK9 (human), sequence (P45984 whole entry, looked up): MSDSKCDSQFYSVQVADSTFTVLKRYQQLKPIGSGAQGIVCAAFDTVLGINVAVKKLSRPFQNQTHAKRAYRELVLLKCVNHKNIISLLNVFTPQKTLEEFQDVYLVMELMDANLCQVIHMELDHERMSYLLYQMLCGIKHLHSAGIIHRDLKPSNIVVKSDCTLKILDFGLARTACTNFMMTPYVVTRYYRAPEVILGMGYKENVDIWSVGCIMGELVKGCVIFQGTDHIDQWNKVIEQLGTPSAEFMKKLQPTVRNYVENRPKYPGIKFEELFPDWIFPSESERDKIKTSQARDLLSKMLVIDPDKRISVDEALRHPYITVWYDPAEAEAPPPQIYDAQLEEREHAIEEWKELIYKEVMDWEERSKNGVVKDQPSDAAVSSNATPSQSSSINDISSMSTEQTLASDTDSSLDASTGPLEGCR

CAMK2G (human) = CAMK2G (human) (UniProt Q13555)
CAMK2G (human), sequence (Q13555 whole entry, looked up): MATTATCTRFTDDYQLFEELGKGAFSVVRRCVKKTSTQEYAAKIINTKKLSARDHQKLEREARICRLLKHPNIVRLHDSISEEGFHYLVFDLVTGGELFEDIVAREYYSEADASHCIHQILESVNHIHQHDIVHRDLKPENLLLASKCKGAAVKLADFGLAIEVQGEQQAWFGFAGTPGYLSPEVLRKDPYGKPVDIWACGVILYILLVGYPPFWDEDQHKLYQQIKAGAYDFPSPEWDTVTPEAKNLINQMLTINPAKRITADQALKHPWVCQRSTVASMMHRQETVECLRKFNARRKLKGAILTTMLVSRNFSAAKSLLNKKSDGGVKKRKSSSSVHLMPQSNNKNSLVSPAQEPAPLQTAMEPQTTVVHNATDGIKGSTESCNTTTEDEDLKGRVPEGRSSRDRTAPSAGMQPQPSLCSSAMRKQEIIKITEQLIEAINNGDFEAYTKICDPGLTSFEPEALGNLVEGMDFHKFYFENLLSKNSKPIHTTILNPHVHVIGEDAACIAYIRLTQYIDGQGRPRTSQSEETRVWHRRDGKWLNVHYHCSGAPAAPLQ

RET (human) = RET (human) (UniProt P07949)
NUAK1 (human) = NUAK1 (human) (UniProt O60285)
ERBB2 (human) = ERBB2 (human) (UniProt P04626)
INSRR (human) = INSRR (human) (UniProt P14616)
CDK9 (human) = CDK9 (human) (UniProt P50750)
CDK9 (human), sequence (P50750 whole entry, looked up): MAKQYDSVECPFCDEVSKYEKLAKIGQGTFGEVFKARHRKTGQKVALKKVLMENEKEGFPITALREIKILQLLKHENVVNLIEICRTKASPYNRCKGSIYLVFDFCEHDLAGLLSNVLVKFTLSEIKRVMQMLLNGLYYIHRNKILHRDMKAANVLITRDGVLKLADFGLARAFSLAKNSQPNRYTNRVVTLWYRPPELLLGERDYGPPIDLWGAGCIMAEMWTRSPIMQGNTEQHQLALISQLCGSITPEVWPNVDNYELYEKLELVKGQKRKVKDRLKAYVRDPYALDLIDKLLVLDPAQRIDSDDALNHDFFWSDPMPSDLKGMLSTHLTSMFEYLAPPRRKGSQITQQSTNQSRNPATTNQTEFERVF

FGR (human) = FGR (human) (UniProt P09769)
IRAK3 (human) = IRAK3 (human) (UniProt Q9Y616)
MAP3K3 (human) = MAP3K3 (human) (UniProt Q99759)
MAP3K3 (human), sequence (Q99759 whole entry, looked up): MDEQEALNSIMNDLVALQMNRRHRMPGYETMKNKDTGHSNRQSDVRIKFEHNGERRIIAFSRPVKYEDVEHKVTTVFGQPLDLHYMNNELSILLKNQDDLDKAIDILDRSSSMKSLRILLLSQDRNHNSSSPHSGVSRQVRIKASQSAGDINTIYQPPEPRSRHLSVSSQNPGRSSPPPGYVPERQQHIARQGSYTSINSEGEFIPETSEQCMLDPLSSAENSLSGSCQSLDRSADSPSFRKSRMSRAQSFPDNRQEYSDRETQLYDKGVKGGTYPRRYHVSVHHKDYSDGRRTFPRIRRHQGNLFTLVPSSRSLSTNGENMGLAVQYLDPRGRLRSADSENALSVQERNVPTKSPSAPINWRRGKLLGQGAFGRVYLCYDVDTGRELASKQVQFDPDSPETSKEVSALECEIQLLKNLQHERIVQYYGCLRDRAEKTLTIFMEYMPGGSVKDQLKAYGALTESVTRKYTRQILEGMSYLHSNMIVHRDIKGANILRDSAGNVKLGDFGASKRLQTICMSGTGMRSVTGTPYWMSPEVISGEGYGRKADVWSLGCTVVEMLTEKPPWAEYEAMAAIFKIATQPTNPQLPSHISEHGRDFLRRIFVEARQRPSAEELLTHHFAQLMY

MAP3K5 (human) = MAP3K5 (human) (UniProt Q99683)
ITK (human) = ITK (human) (UniProt Q08881)
PTK2 (human) = PTK2 (human) (UniProt Q05397)
RIOK1 (human) = RIOK1 (human) (UniProt Q9BRS2)
CDK7 (human) = CDK7 (human) (UniProt P50613)
CDK7 (human), sequence (P50613 whole entry, looked up): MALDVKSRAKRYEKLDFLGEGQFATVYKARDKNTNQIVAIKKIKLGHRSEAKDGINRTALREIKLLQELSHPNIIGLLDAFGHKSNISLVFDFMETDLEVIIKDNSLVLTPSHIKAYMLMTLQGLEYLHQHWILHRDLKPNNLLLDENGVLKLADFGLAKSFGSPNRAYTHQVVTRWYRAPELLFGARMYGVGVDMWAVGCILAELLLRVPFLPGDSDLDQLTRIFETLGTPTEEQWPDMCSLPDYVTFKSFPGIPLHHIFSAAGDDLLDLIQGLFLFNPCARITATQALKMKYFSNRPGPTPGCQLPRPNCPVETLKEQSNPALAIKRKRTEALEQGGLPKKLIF

PIK3CA (human) = PIK3CA (human) (UniProt P42336)
PIK3CA (human), sequence (P42336 whole entry, looked up): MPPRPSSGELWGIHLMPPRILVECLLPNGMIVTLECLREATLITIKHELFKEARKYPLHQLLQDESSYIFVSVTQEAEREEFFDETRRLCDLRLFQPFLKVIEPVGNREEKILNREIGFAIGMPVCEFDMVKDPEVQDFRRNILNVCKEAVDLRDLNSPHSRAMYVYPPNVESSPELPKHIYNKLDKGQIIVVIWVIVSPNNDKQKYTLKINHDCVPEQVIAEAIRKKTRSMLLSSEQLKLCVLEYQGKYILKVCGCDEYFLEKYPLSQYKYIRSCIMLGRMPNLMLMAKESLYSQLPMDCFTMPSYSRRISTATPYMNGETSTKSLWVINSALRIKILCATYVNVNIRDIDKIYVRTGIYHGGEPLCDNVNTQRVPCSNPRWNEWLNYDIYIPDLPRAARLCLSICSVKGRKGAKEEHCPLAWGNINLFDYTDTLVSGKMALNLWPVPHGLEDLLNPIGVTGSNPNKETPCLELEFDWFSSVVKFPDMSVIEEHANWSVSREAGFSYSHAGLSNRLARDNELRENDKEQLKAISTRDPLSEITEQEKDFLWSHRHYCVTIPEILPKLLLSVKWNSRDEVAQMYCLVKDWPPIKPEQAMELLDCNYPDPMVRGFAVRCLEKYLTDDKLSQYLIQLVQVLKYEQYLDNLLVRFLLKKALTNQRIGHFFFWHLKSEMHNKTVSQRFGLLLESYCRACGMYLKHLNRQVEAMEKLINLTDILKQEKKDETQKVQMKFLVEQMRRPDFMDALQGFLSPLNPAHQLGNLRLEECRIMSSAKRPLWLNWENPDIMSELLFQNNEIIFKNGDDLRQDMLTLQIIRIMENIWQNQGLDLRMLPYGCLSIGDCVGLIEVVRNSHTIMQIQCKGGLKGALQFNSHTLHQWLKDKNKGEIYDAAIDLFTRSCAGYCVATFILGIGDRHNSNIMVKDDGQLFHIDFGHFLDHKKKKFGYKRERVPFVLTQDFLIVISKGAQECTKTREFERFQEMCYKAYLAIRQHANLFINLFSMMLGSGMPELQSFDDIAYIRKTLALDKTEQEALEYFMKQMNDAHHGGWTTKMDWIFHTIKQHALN

NEK2 (human) = NEK2 (human) (UniProt P51955)
NEK2 (human), sequence (P51955 whole entry, looked up): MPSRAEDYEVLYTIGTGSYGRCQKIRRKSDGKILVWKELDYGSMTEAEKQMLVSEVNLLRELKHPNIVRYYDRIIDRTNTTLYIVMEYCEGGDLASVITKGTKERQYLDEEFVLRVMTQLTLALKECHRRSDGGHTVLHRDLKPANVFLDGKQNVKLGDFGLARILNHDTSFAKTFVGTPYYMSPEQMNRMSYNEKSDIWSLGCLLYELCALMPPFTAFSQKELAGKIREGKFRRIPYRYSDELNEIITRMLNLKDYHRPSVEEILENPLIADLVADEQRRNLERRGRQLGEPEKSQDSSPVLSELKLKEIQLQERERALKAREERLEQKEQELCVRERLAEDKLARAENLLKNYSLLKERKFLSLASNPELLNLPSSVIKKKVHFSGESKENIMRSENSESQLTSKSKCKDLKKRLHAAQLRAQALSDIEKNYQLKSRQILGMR

PRKG1 (human) = PRKG1 (human) (UniProt Q13976)
PRKG1 (human), sequence (Q13976 whole entry, looked up): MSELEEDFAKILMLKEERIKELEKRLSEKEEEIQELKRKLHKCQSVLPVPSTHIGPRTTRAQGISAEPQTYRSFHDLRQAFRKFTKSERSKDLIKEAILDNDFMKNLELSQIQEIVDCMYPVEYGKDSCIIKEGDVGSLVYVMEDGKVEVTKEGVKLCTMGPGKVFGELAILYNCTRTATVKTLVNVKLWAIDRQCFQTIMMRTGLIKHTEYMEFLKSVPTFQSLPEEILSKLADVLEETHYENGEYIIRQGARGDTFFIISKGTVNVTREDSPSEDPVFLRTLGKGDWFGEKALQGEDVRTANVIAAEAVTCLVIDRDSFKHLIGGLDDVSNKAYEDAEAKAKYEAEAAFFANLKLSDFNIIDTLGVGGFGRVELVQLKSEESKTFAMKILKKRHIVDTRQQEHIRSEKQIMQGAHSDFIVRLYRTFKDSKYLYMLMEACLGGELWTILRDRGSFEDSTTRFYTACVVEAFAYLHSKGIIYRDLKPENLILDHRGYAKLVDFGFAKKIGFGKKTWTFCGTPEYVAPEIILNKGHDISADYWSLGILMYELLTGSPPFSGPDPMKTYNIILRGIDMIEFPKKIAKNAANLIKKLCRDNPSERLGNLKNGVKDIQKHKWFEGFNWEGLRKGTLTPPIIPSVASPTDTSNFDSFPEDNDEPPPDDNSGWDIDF

MET (human) = MET (human) (UniProt P08581)
CDK3 (human) = CDK3 (human) (UniProt Q00526)
CDK3 (human), sequence (Q00526 whole entry, looked up): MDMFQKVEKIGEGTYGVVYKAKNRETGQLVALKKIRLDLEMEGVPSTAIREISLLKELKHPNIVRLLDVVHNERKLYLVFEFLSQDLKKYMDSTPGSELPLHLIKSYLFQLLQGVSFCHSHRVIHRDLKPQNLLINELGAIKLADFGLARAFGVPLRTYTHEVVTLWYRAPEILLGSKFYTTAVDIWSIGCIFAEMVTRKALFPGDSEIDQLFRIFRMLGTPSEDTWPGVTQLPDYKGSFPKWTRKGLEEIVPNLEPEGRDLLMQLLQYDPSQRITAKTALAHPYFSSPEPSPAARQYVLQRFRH

ULK1 (human) = ULK1 (human) (UniProt O75385)
RIPK2 (human) = RIPK2 (human) (UniProt O43353)
PRKG2 (human) = PRKG2 (human) (UniProt Q13237)
CSNK1G2 (human) = CSNK1G2 (human) (UniProt P78368)
[1] = tested on: PIK3CA (human), P42336 [M1043I]
PIK3CA (human), P42336 [M1043I], sequence (P42336 whole entry M1043I, looked up): as the sequence (P42336 whole entry, looked up) above, with M1043I counted along it

HUNK (human) = HUNK (human) (UniProt P57058)
DYRK2 (human) = DYRK2 (human) (UniProt Q92630)
YSK4 (human) = YSK4 (human) (UniProt Q56UN5)

| kinase still bound, per cent of control (PRKCQ (human)) [%] | kinase still bound, per cent of control (CLK3 (human)) [%] | kinase still bound, per cent of control (YES1 (human)) [%] | kinase still bound, per cent of control (AAK1 (human)) [%] | kinase still bound, per cent of control (PIM1 (human)) [%] | kinase still bound, per cent of control (AKT1 (human)) [%] | kinase still bound, per cent of control (CDK2 (human)) [%] | kinase still bound, per cent of control (NEK7 (human)) [%] | kinase still bound, per cent of control (TLK2 (human)) [%] | kinase still bound, per cent of control (MYLK2 (human)) [%] | kinase still bound, per cent of control (MAPK9 (human)) [%] | kinase still bound, per cent of control (CAMK2G (human)) [%] | kinase still bound, per cent of control (RET (human)) [%] | kinase still bound, per cent of control (NUAK1 (human)) [%] | kinase still bound, per cent of control (ERBB2 (human)) [%] | kinase still bound, per cent of control (INSRR (human)) [%] | kinase still bound, per cent of control (CDK9 (human)) [%] | kinase still bound, per cent of control (FGR (human)) [%] | kinase still bound, per cent of control (IRAK3 (human)) [%] | kinase still bound, per cent of control (MAP3K5 (human)) [%] | Compound | further results |
| --- | --- | --- | --- | --- | --- | --- | --- | --- | --- | --- | --- | --- | --- | --- | --- | --- | --- | --- | --- | --- | --- |
| 100 | 8.3 | 100 | 100 | 100 | 100 | 100 | 100 | 100 | 100 | 100 | 100 | 100 | 100 | 18 | 1.2 | 100 | 100 | 29 | 100 | COc1cc(N2CCC(C(N)=O)CC2)ccc1Nc1nc(N)c(Cl)c(Nc2ccccc2S(=O)(=O)C(C)C)n1 | kinase still bound, per cent of control (MAP3K3 (human)): 100%; kinase still bound, per cent of control (ITK (human)): 100%; kinase still bound, per cent of control (PTK2 (human)): 0%; kinase still bound, per cent of control (RIOK1 (human)): 100%; kinase still bound, per cent of control (CDK7 (human)): 100%; kinase still bound, per cent of control (PIK3CA (human)): 100%; kinase still bound, per cent of control (NEK2 (human)): 100%; kinase still bound, per cent of control (PRKG1 (human)): 100%; kinase still bound, per cent of control (MET (human)): 100%; kinase still bound, per cent of control (CDK3 (human)): 100%; kinase still bound, per cent of control (ULK1 (human)): 100%; kinase still bound, per cent of control (RIPK2 (human)): 100%; kinase still bound, per cent of control (PRKG2 (human)): 100%; kinase still bound, per cent of control (CSNK1G2 (human)): 100% |
| 100 | 100 | 100 | 100 | 100 | 100 | 100 | 100 | 100 | 100 | 100 | 100 | 100 | 100 | 100 | 100 | 100 | 100 | 100 | 100 | CCOc1cc(N2CCC(O)CC2)ccc1Nc1ncc2c(n1)N(C)c1ccccc1C(=O)N2C | kinase still bound, per cent of control [1]: 100%; kinase still bound, per cent of control (HUNK (human)): 100%; kinase still bound, per cent of control (DYRK2 (human)): 100%; kinase still bound, per cent of control (MAP3K3 (human)): 100%; kinase still bound, per cent of control (ITK (human)): 100%; kinase still bound, per cent of control (PTK2 (human)): 100%; kinase still bound, per cent of control (RIOK1 (human)): 100%; kinase still bound, per cent of control (CDK7 (human)): 100%; kinase still bound, per cent of control (PIK3CA (human)): 100%; kinase still bound, per cent of control (NEK2 (human)): 100%; kinase still bound, per cent of control (PRKG1 (human)): 100%; kinase still bound, per cent of control (YSK4 (human)): 100%; kinase still bound, per cent of control (MET (human)): 100%; kinase still bound, per cent of control (CDK3 (human)): 100%; kinase still bound, per cent of control (ULK1 (human)): 100%; kinase still bound, per cent of control (RIPK2 (human)): 100%; kinase still bound, per cent of control (PRKG2 (human)): 100%; kinase still bound, per cent of control (CSNK1G2 (human)): 100% |
| 100 | 19 | 12 | 100 | 100 | 100 | 100 | 14 | 100 | 100 | 100 | 100 | 100 | 100 | 100 | 0.35 | 100 | 100 | 100 | 100 | COc1cc(C)c(Sc2cnc(NC(=O)c3ccc(CNC(C)C(C)C)cc3)s2)cc1C(=O)N1CCN(C(C)=O)CC1 (stereo not drawn) | kinase still bound, per cent of control (MAP3K3 (human)): 100%; kinase still bound, per cent of control (ITK (human)): 0.25%; kinase still bound, per cent of control (PTK2 (human)): 100%; kinase still bound, per cent of control (RIOK1 (human)): 100%; kinase still bound, per cent of control (CDK7 (human)): 1.4%; kinase still bound, per cent of control (PIK3CA (human)): 100%; kinase still bound, per cent of control (NEK2 (human)): 18%; kinase still bound, per cent of control (PRKG1 (human)): 100%; kinase still bound, per cent of control (MET (human)): 29%; kinase still bound, per cent of control (CDK3 (human)): 100%; kinase still bound, per cent of control (ULK1 (human)): 25%; kinase still bound, per cent of control (RIPK2 (human)): 100%; kinase still bound, per cent of control (PRKG2 (human)): 100%; kinase still bound, per cent of control (CSNK1G2 (human)): 100% |
| 100 | 100 | 0.45 | 100 | 100 | 100 | 100 | 100 | 100 | 100 | 19 | 100 | 0.35 | 100 | 100 | 100 | 100 | 1.2 | 100 | 100 | COc1ccc(N(C(=O)Oc2cc(C(=O)Nc3cccc(C(F)(F)F)c3)ccc2C)c2ccnc(Nc3ccc(N4CCN(C)CC4)cc3)n2)c(OC)c1 | kinase still bound, per cent of control (ITK (human)): 100%; kinase still bound, per cent of control (PTK2 (human)): 4.6%; kinase still bound, per cent of control (RIOK1 (human)): 100%; kinase still bound, per cent of control (CDK7 (human)): 100%; kinase still bound, per cent of control (PIK3CA (human)): 100%; kinase still bound, per cent of control (NEK2 (human)): 100%; kinase still bound, per cent of control (PRKG1 (human)): 100%; kinase still bound, per cent of control (MET (human)): 100%; kinase still bound, per cent of control (CDK3 (human)): 100%; kinase still bound, per cent of control (RIPK2 (human)): 2.3%; kinase still bound, per cent of control (PRKG2 (human)): 100%; kinase still bound, per cent of control (CSNK1G2 (human)): 100% |

Reference: the kinase profiling compilation of Christmann-Franck et al. (2016)
